Measurements as given in ChEMBL document CHEMBL1201862, “PubChem BioAssay data set” (2004).
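Where inhibition never reached the appropriate level, the endpoint shown equals the highest concentration tested. Otherwise, values were interpolated linearly from a five-concentration, 48-hour dose response in 96-well plates. GI50 marks 50% less growth.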 Calls of active or inactive are those of the source. Rule as the data show it: active = GI50 up to about 1.1 µM and inactive = higher.

Columns and labels:
Assay in all cases: NCI-60 cell line screen, 48 h
NCI-H226 = system: NCI-H226
NCI-H460 = system: NCI-H460
MOLT-4 = system: MOLT-4
SF-268 = system: SF-268
Hs-578T = system: Hs-578T
T47D = system: T47D
NCI/ADR-RES = system: NCI/ADR-RES
RPMI-8226 = system: RPMI-8226
EKVX = system: EKVX
ACHN = system: ACHN
NCI-H522 = system: NCI-H522
A498 = system: A498
MDA-N = system: MDA-N
UO-31 = system: UO-31
SR = system: SR
786-0 = system: 786-0
K562 = system: K562
COLO 205 = system: COLO 205
SN12C = system: SN12C
HCC 2998 = system: HCC 2998
Malme-3M = system: Malme-3M
HCT-15 = system: HCT-15
MDA-MB-435 = system: MDA-MB-435
OVCAR-8 = system: OVCAR-8
SK-OV-3 = system: SK-OV-3
HOP-92 = system: HOP-92
M14 = system: M14
IGROV-1 = system: IGROV-1
HCT-116 = system: HCT-116
SF-539 = system: SF-539
CCRF-CEM = system: CCRF-CEM
SW-620 = system: SW-620
A549 = system: A549
CAKI-1 = system: CAKI-1
MCF7 = system: MCF7
LOX IMVI = system: LOX IMVI
PC-3 = system: PC-3
SNB-19 = system: SNB-19
OVCAR-5 = system: OVCAR-5
SK-MEL-28 = system: SK-MEL-28
MDA-MB-231 = system: MDA-MB-231
SF-295 = system: SF-295
HT-29 = system: HT-29
NCI-H23 = system: NCI-H23
DU-145 = system: DU-145
RXF 393 = system: RXF 393
UACC-62 = system: UACC-62
SNB-75 = system: SNB-75
BT-549 = system: BT-549
OVCAR-3 = system: OVCAR-3
TK-10 = system: TK-10
UACC-257 = system: UACC-257
HL-60 = system: HL-60
OVCAR-4 = system: OVCAR-4
KM12 = system: KM12
SK-MEL-5 = system: SK-MEL-5
HOP-62 = system: HOP-62
U-251 = system: U-251
SK-MEL-2 = system: SK-MEL-2

N=C(N)N/N=C/c1cnn(C(=N)N)c1
GI50 (NCI-H226): > 100 µM (inactive)
GI50 (NCI-H460): > 100 µM (inactive)
GI50 (MOLT-4): > 100 µM (inactive)
GI50 (SF-268): > 100 µM (inactive)
GI50 (Hs-578T): > 100 µM (inactive)
GI50 (T47D): > 100 µM (inactive)
GI50 (NCI/ADR-RES): > 100 µM (inactive)
GI50 (RPMI-8226): > 100 µM (inactive)
GI50 (EKVX): 45.7 µM (inactive)
GI50 (ACHN): > 100 µM (inactive)
GI50 (NCI-H522): > 100 µM (inactive)
GI50 (A498): > 100 µM (inactive)
GI50 (MDA-N): > 100 µM (inactive)
GI50 (UO-31): > 100 µM (inactive)
GI50 (SR): > 100 µM (inactive)
GI50 (786-0): > 100 µM (inactive)
GI50 (K562): > 100 µM (inactive)
GI50 (COLO 205): > 100 µM (inactive)
GI50 (SN12C): 63.7 µM (inactive)
GI50 (HCC 2998): > 100 µM (inactive)
GI50 (Malme-3M): > 100 µM (inactive)
GI50 (HCT-15): > 100 µM
GI50 (MDA-MB-435): > 100 µM (inactive)
GI50 (OVCAR-8): > 100 µM (inactive)
GI50 (SK-OV-3): > 100 µM (inactive)
GI50 (HOP-92): > 100 µM (inactive)
GI50 (M14): > 100 µM (inactive)
GI50 (IGROV-1): > 100 µM (inactive)
GI50 (HCT-116): > 100 µM (inactive)
GI50 (SF-539): > 100 µM (inactive)
GI50 (CCRF-CEM): > 100 µM (inactive)
GI50 (SW-620): > 100 µM (inactive)
GI50 (A549): > 100 µM (inactive)
GI50 (CAKI-1): > 100 µM (inactive)
GI50 (MCF7): > 100 µM (inactive)
GI50 (LOX IMVI): > 100 µM (inactive)
GI50 (PC-3): 31.4 µM (inactive)
GI50 (SNB-19): > 100 µM (inactive)
GI50 (OVCAR-5): > 100 µM (inactive)
GI50 (SK-MEL-28): > 100 µM (inactive)
GI50 (MDA-MB-231): > 100 µM (inactive)
GI50 (SF-295): > 100 µM (inactive)
GI50 (HT-29): > 100 µM (inactive)
GI50 (NCI-H23): > 100 µM (inactive)
GI50 (DU-145): > 100 µM (inactive)
GI50 (RXF 393): > 100 µM (inactive)
GI50 (UACC-62): > 100 µM (inactive)
GI50 (SNB-75): 95.3 µM (inactive)
GI50 (BT-549): > 100 µM (inactive)
GI50 (OVCAR-3): > 100 µM (inactive)
GI50 (TK-10): > 100 µM (inactive)
GI50 (UACC-257): 57.4 µM (inactive)
GI50 (HL-60): > 100 µM (inactive)
GI50 (OVCAR-4): > 100 µM (inactive)
GI50 (KM12): 64.1 µM (inactive)
GI50 (SK-MEL-5): > 100 µM (inactive)
GI50 (HOP-62): > 100 µM (inactive)
GI50 (U-251): 91 µM (inactive)

OC12C3C4CC5C(C4[C@@H]1Br)C2[C@@](O)(c1c(F)c(F)c(F)c(F)c1F)C53 (some centres undefined)
GI50 (NCI-H460): 33.7 µM (inactive)
GI50 (MOLT-4): 26.5 µM (inactive)
GI50 (SF-268): 38.7 µM (inactive)
GI50 (Hs-578T): 22.2 µM (inactive)
GI50 (T47D): 41.4 µM (inactive)
GI50 (NCI/ADR-RES): 27.2 µM (inactive)
GI50 (EKVX): 27.1 µM (inactive)
GI50 (ACHN): 51.1 µM (inactive)
GI50 (NCI-H522): 29.6 µM (inactive)
GI50 (A498): 33.2 µM (inactive)
GI50 (MDA-N): 34.9 µM (inactive)
GI50 (UO-31): 29.8 µM (inactive)
GI50 (SR): 21.3 µM (inactive)
GI50 (786-0): 41.7 µM (inactive)
GI50 (K562): 21.4 µM (inactive)
GI50 (COLO 205): 39.4 µM (inactive)
GI50 (SN12C): > 100 µM (inactive)
GI50 (HCC 2998): 36.5 µM (inactive)
GI50 (HCT-15): 39.8 µM
GI50 (MDA-MB-435): 37.6 µM (inactive)
GI50 (OVCAR-8): 32 µM (inactive)
GI50 (HOP-92): 24 µM (inactive)
GI50 (M14): 37 µM (inactive)
GI50 (IGROV-1): 35.6 µM (inactive)
GI50 (HCT-116): 30.8 µM (inactive)
GI50 (SF-539): 56.4 µM (inactive)
GI50 (CCRF-CEM): 21.7 µM (inactive)
GI50 (SW-620): 43.3 µM (inactive)
GI50 (A549): 33.7 µM (inactive)
GI50 (CAKI-1): 21.1 µM (inactive)
GI50 (MCF7): 20.4 µM (inactive)
GI50 (LOX IMVI): 32.1 µM (inactive)
GI50 (PC-3): 23.3 µM (inactive)
GI50 (SNB-19): 37.2 µM (inactive)
GI50 (OVCAR-5): 68.2 µM (inactive)
GI50 (SK-MEL-28): 39.8 µM (inactive)
GI50 (MDA-MB-231): > 100 µM (inactive)
GI50 (SF-295): 25.9 µM (inactive)
GI50 (HT-29): 27.5 µM (inactive)
GI50 (NCI-H23): 31.7 µM (inactive)
GI50 (DU-145): 41.8 µM (inactive)
GI50 (RXF 393): 24.3 µM (inactive)
GI50 (UACC-62): 25.6 µM (inactive)
GI50 (BT-549): 39.4 µM (inactive)
GI50 (OVCAR-3): 23.3 µM (inactive)
GI50 (TK-10): 47.8 µM (inactive)
GI50 (SK-MEL-2): 24.5 µM (inactive)
GI50 (UACC-257): 24.8 µM (inactive)
GI50 (HL-60): 38.2 µM (inactive)
GI50 (OVCAR-4): 28.2 µM (inactive)
GI50 (KM12): 15.7 µM (inactive)
GI50 (SK-MEL-5): 26.2 µM (inactive)
GI50 (HOP-62): 35.1 µM (inactive)
GI50 (U-251): 38 µM (inactive)

Cc1nn(-c2ccccc2)c2c1C(c1cc3ccccc3nc1Cl)NC(=O)N2 (centres undefined)
GI50 (NCI-H226): 19.1 µM (inactive)
GI50 (NCI-H460): 30.8 µM (inactive)
GI50 (MOLT-4): 2.64 µM (inactive)
GI50 (SF-268): 27.4 µM (inactive)
GI50 (Hs-578T): 27.5 µM (inactive)
GI50 (T47D): 59.2 µM (inactive)
GI50 (NCI/ADR-RES): 28.4 µM (inactive)
GI50 (RPMI-8226): 23.9 µM (inactive)
GI50 (EKVX): 25.9 µM (inactive)
GI50 (ACHN): 17.7 µM (inactive)
GI50 (NCI-H522): 16.5 µM (inactive)
GI50 (A498): 21.5 µM (inactive)
GI50 (MDA-N): 18.5 µM (inactive)
GI50 (UO-31): 14.3 µM (inactive)
GI50 (SR): 2.19 µM (inactive)
GI50 (786-0): 16.7 µM (inactive)
GI50 (K562): 2.94 µM (inactive)
GI50 (COLO 205): 19.5 µM (inactive)
GI50 (SN12C): 24.4 µM (inactive)
GI50 (Malme-3M): 20.8 µM (inactive)
GI50 (HCT-15): 19.8 µM
GI50 (MDA-MB-435): 23.9 µM (inactive)
GI50 (OVCAR-8): 19.3 µM (inactive)
GI50 (SK-OV-3): 20.1 µM (inactive)
GI50 (HOP-92): 10.8 µM (inactive)
GI50 (M14): 19.6 µM (inactive)
GI50 (IGROV-1): 11 µM (inactive)
GI50 (HCT-116): 23.8 µM (inactive)
GI50 (SF-539): 19.9 µM (inactive)
GI50 (CCRF-CEM): 25.8 µM (inactive)
GI50 (SW-620): 17.7 µM (inactive)
GI50 (A549): 56.2 µM (inactive)
GI50 (CAKI-1): 34.4 µM (inactive)
GI50 (MCF7): 25.3 µM (inactive)
GI50 (LOX IMVI): 19.4 µM (inactive)
GI50 (PC-3): 19.8 µM (inactive)
GI50 (SNB-19): 20.7 µM (inactive)
GI50 (OVCAR-5): 22.5 µM (inactive)
GI50 (MDA-MB-231): 20.6 µM (inactive)
GI50 (SF-295): 21.1 µM (inactive)
GI50 (HT-29): 18.7 µM (inactive)
GI50 (NCI-H23): 17.9 µM (inactive)
GI50 (DU-145): 29.4 µM (inactive)
GI50 (RXF 393): 18.5 µM (inactive)
GI50 (UACC-62): 19 µM (inactive)
GI50 (SNB-75): 18.9 µM (inactive)
GI50 (BT-549): 16.6 µM (inactive)
GI50 (OVCAR-3): 32.7 µM (inactive)
GI50 (TK-10): 28.2 µM (inactive)
GI50 (SK-MEL-2): 14.3 µM (inactive)
GI50 (UACC-257): 27.7 µM (inactive)
GI50 (HL-60): 5.81 µM (inactive)
GI50 (OVCAR-4): 34.1 µM (inactive)
GI50 (KM12): 21.2 µM (inactive)
GI50 (SK-MEL-5): 17 µM (inactive)
GI50 (HOP-62): 20.4 µM (inactive)
GI50 (U-251): 17.1 µM (inactive)
